We go through 29 molecules from patent publication US11072598B2, “Somatostatin modulators and uses thereof” (CRINETICS PHARMACEUTICALS, INC., priority 2017, dated 2021).

The test concerns the target T1, human somatostatin receptor subtype 2 (Homo sapiens, UniProt P30874).
T1 construct: expressed in transfected cells
The experiment in a line: cAMP functional assay for SSTR2 agonists. The note with it: inhibition of cAMP activities via human SST2 receptor (SSTR2), CHO-K1 cells; read-out: EC50. Format: cell-based. The text has this: General overview: All five SSTR subtypes are Gi coupled G-protein coupled receptors (GPCRs) that lead to decreases in intracellular cyclic AMP (cAMP) when activated by an agonist. Therefore, measurement of intracellular cAMP levels can be used to assess whether compounds of the invention are agonists of SSTR subtypes (John Kelly, Troy Stevens, W. Joseph Thompson, and Roland Seifert, Current Protocols in Pharmacology, 2005, 2.2.1-2.2). One example of an intracellular cAMP assay is described below. cAMP assay protocol:
Four days prior to the assay, 5,000 Chinese hamster ovary cells (CHO-K1, ATCC #CCL-61) stably expressing the human somatostatin receptor subtype 2 are plated in each well of a 96-well tissue culture-treated plate in Ham's F12 growth media (ThermoFisher #10-080-CM) supplemented with 10% donor bovine serum (Gemini Bio-Products #100-506), 100 U/mL penicillin; 100 ug/mL streptomycin; 2 mM L-glutamine (Gemini Bio-Products #400-110) and 0.2 mg/mL hygromycin B (GoldBio #31282-04-9). The cells are cultured at 37° C., 5% CO2 and 95% humidity. On the day of the assay, the media is aspirated and the cells are treated with 50 μL of 1.6 μM NKH477 (Sigma #N3290) plus various dilutions of compounds of the invention in assay buffer [1× Hank's Balanced Salt Solution (ThermoFisher #SH3058802), 0.5 mM HEPES pH 7.4, 0.1% bovine serum albumin, 0.2 mM 3-Isobutyl-1-methylxanthine (IBMX, VWR #200002-790)]. The cells are incubated for 20 minutes at 37° C. […] The cells are treated with 50 μL of lysis buffer (HRTF cAMP kit, Cisbio). The lysate is transferred to 384-well plates and cAMP detection and visualization antibodies are added and incubated for 1-24 hours at room temperature. The time-resolved fluorescent signal is read with a Tecan M1000Pro multiplate reader. The intracellular cAMP concentrations are calculated by regression to a standard curve and are plotted vs. the concentration of the compounds of the invention and the EC50 of the compounds are calculated using standard methods. All data manipluations are in GraphPad Prism v6.

T1 sequence (P30874 whole entry): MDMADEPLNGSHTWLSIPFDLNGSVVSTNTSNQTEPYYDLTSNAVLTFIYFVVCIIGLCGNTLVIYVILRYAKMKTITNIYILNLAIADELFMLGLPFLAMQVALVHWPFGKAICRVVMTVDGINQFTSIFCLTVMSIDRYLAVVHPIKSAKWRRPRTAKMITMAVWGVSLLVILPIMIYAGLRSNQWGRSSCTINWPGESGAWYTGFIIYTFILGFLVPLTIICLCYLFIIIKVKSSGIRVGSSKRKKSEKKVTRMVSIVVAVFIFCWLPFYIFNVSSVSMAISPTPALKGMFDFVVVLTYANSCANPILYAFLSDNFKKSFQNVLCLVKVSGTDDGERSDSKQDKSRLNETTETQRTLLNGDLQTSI

On to `C#Cc1cc(F)c2[nH]c(-c3c(N)ncc(-c4cc(C)cc(F)c4)c3N3CCC(N)CC3)nc2c1` [Compound 1-66, 4-(4-aminopiperidin-1-yl)-3-(5-ethynyl-7-fluoro-1H-1,3-benzodiazol-2-yl)-5-(3-fluoro-5-methylphenyl)pyridin-2-amine], for which the EC50 – broadly, the concentration at which the effect is half-maximal – was less than 10 nM.

Turning to `COC(=O)Nc1cccc2nc(-c3c(N)ncc(-c4cc(C)cc(F)c4)c3N3CCC(N)CC3)[nH]c12` [Compound 1-27, methyl N-{2-[2-amino-4-(4-aminopiperidin-1-yl)-5-(3-fluoro-5-methylphenyl)pyridin-3-yl]-1H-1,3-benzodiazol-7-yl}carbamate], the EC50 is less than 10 nM.

`COc1cc(Cl)cc2nc(-c3c(N)ncc(-c4cc(C)cc(F)c4)c3N3CCC(N)CC3)[nH]c12` [Compound 1-94, 4-(4-aminopiperidin-1-yl)-3-(5-chloro-7-methoxy-1H-1,3-benzodiazol-2-yl)-5-(3-fluoro-5-methylphenyl)pyridin-2-amine]: the EC50 was less than 10 nM.

On to `Cc1cc(F)cc(-c2cnnc(-c3[nH]c4cc(Cl)ccc4c3Cl)c2N2CCC(N)CC2)c1` [Compound 3-14, 1-[3-(3,6-dichloro-1H-indol-2-yl)-5-(3-fluoro-5-methylphenyl)pyridazin-4-yl]piperidin-4-amine], for which the EC50 is less than 10 nM.

As to `Cc1cc(F)cc(-c2cnc(N)c(-c3nc4cc(OC5CC5)ccc4[nH]3)c2N2CCC(N)CC2)c1` [Compound 1-20, 4-(4-aminopiperidin-1-yl)-3-(5-cyclopropoxy-1H-1,3-benzodiazol-2-yl)-5-(3-fluoro-5-methylphenyl)pyridin-2-amine], the EC50 is less than 10 nM.

On to `Cc1cc(C)cc(-c2cnc(N)c(C=NOC(C)(C)C)c2N2CCC(N)CC2)c1` [Compound 1-36], for which the EC50 lay in the range of 10 to 100 nM.

As to `CNC1CCN(c2c(-c3cc(C)cc(F)c3)cnc(N)c2-c2nc3cc(C#N)cc(F)c3[nH]2)CC1` [Compound 4-3, 2-[2-amino-5-(3-fluoro-5-methylphenyl)-4-[4-(methylamino)piperidin-1-yl]pyridin-3-yl]-7-fluoro-1H-1,3-benzodiazole-5-carbonitrile], the EC50 was less than 10 nM.

Turning to `Cc1cc(F)cc(-c2cnc(Cl)c(-c3nc4cc(F)ccc4[nH]3)c2N2CCC(N)CC2)c1` [Compound 2-11, 1-[2-chloro-3-(5-fluoro-1H-1,3-benzodiazol-2-yl)-5-(3-fluoro-5-methylphenyl)pyridin-4-yl]piperidin-4-amine], the half-maximal effective concentration (EC50) was less than 10 nM.

In the case of `N#Cc1cc(F)cc(-c2cnc(N)c(-c3nc4cc(Cl)ccc4[nH]3)c2N2CCC(N)CC2)c1` [Compound 1-32, 3-[6-amino-4-(4-aminopiperidin-1-yl)-5-(5-chloro-1H-1,3-benzodiazol-2-yl)pyridin-3-yl]-5-fluorobenzonitrile], the EC50 was less than 10 nM.

Consider `Cc1cc(F)cc(-c2cnc(N)c(-c3nc4ccc(Cl)cc4n3C)c2N2CCC(N)CC2)c1` [Compound 1-29, 4-(4-aminopiperidin-1-yl)-3-(6-chloro-1-methyl-1H-1,3-benzodiazol-2-yl)-5-(3-fluoro-5-methylphenyl)pyridin-2-amine], for which the EC50 was less than 10 nM.

Regarding `Cc1cc(Cl)cc(-c2cnc(N)c(C=NOC(C)C)c2N2CCC(N)CC2)c1` [Compound 1-37], the EC50 is less than 10 nM.

Turning to `Cc1cc(F)cc(-c2cnc(N)c(-c3nc4cccc(Cl)c4[nH]3)c2N2CCC(N)CC2)c1` [Compound 1-73, 4-(4-aminopiperidin-1-yl)-3-(7-chloro-1H-1,3-benzodiazol-2-yl)-5-(3-fluoro-5-methylphenyl)pyridin-2-amine], the concentration for a half-maximal effect (EC50) is less than 10 nM.

`Cc1cc(F)cc(-c2cnnc(-c3nc4cc(C#N)ccc4[nH]3)c2N2CCC(N)CC2)c1` [Compound 3-22, 2-[4-(4-aminopiperidin-1-yl)-5-(3-fluoro-5-methylphenyl)pyridazin-3-yl]-1H-1,3-benzodiazole-5-carbonitrile]: the half-maximal effective concentration (EC50) is less than 10 nM.

As to `COc1ncc(-c2cc(C)cc(F)c2)c(N2CCC(N)CC2)c1-c1nc2nc(Cl)ccc2[nH]1` [Compound 2-13, 1-(3-{5-chloro-1H-imidazo[4,5-b]pyridin-2-yl}-5-(3-fluoro-5-methylphenyl)-2-methoxypyridin-4-yl)piperidin-4-amine], the EC50 is less than 10 nM.

In the case of `Cc1cc(F)cc(-c2cnnc(-c3cc4cccc(C#N)c4[nH]3)c2N2CCC(N)CC2)c1` [Compound 3-23, 2-[4-(4-aminopiperidin-1-yl)-5-(3-fluoro-5-methylphenyl)pyridazin-3-yl]-1H-indole-7-carbonitrile], the EC50 is less than 10 nM.

`COc1cccc2nc(-c3c(N(C)C)ncc(-c4cc(C)cc(F)c4)c3N3CCC(N)CC3)[nH]c12` [Compound 4-4, 4-(4-aminopiperidin-1-yl)-5-(3-fluoro-5-methylphenyl)-3-(7-methoxy-1H-1,3-benzodiazol-2-yl)-N,N-dimethylpyridin-2-amine]: the EC50 is less than 10 nM.

Take `COc1ncc(-c2cc(C)cc(F)c2)c(N2CCC(N)CC2)c1-c1nc2cc(Cl)ncc2[nH]1` [Compound 2-9]: the EC50 was less than 10 nM.

As to `Cc1cc(F)cc(-c2cnc(N)c(-c3nc4cc(OC5CCC5)ccc4[nH]3)c2N2CCC(N)CC2)c1` [Compound 1-19, 4-(4-aminopiperidin-1-yl)-3-(5-cyclobutoxy-1H-1,3-benzodiazol-2-yl)-5-(3-fluoro-5-methylphenyl)pyridin-2-amine], the EC50 is less than 10 nM.

For `Cc1cc(F)cc(-c2cnnc(-c3cc4ccc(C#N)cc4[nH]3)c2N2CCC(N)CC2)c1` [Compound 3-12, 2-[4-(4-aminopiperidin-1-yl)-5-(3-fluoro-5-methylphenyl)pyridazin-3-yl]-1H-indole-6-carbonitrile], the EC50 is less than 10 nM.

Take `COc1cc(F)cc2[nH]c(-c3c(N)ncc(-c4cc(C)cc(C)c4)c3N3CCC(N)CC3)nc12` [Compound 1-83, 4-(4-aminopiperidin-1-yl)-5-(3,5-dimethylphenyl)-3-(6-fluoro-4-methoxy-1H-1,3-benzodiazol-2-yl)pyridin-2-amine]: the EC50 was less than 10 nM.

Turning to `COc1cc(F)cc2nc(-c3c(N)ncc(-c4ccc(F)c(C)c4)c3N3CCC(N)CC3)[nH]c12` [Compound 1-91, 4-(4-aminopiperidin-1-yl)-5-(4-fluoro-3-methylphenyl)-3-(5-fluoro-7-methoxy-1H-1,3-benzodiazol-2-yl)pyridin-2-amine], the EC50 was less than 10 nM.

For the molecule `COc1cc(F)cc2nc(-c3c(N)ncc(-c4cccc(C)c4)c3N3CCC(N)CC3)[nH]c12` [Compound 1-93, 4-(4-aminopiperidin-1-yl)-3-(5-fluoro-7-methoxy-1H-1,3-benzodiazol-2-yl)-5-(3-methylphenyl)pyridin-2-amine], the EC50 is less than 10 nM.

As for “4-(4-aminopiperidin-1-yl)-5-(3-fluoro-5-methylphenyl)-3-{5-[(hydroxyimino)methyl]-1H-1,3-benzodiazol-2-yl}pyridin-2-amine [Compound 1-47]”, the EC50 is less than 10 nM.

For the molecule `CON(C)C(=O)c1cccc2nc(-c3c(N)ncc(-c4cc(C)cc(F)c4)c3N3CCC(N)CC3)[nH]c12` [Compound 1-18, 2-[2-amino-4-(4-aminopiperidin-1-yl)-5-(3-fluoro-5-methylphenyl)pyridin-3-yl]-N-methoxy-N-methyl-1H-1,3-benzodiazole-7-carboxamide], the EC50 lay within 10 to 100 nM.

With `Cc1cc(F)cc(-c2cnc(N)c(-c3nc4cc(N5CC(F)C5)ccc4[nH]3)c2N2CCC(N)CC2)c1` [Compound 1-26, 4-(4-aminopiperidin-1-yl)-5-(3-fluoro-5-methylphenyl)-3-[5-(3-fluoroazetidin-1-yl)-1H-1,3-benzodiazol-2-yl]pyridin-2-amine], the half-maximal effective concentration (EC50) was less than 10 nM.

For `CNC1CCN(c2c(-c3cc(C)cc(F)c3)cnc(N)c2-c2nc3cc(F)cc(OC)c3[nH]2)CC1` [Compound 4-10, 3-(5-fluoro-7-methoxy-1H-1,3-benzodiazol-2-yl)-5-(3-fluoro-5-methylphenyl)-4-[4-(methylamino)piperidin-1-yl]pyridin-2-amine], the EC50 is less than 10 nM.

Take `CNC1CCN(c2c(-c3cc(C)cc(F)c3)cnc(N)c2-c2nc3ccc(C#N)cc3[nH]2)CC1` [Compound 4-2, 2-[2-amino-5-(3-fluoro-5-methylphenyl)-4-[4-(methylamino)piperidin-1-yl]pyridin-3-yl]-1H-1,3-benzodiazole-6-carbonitrile]: the EC50 was less than 10 nM.

Regarding `N#CCOc1cc(F)cc2nc(-c3c(N)ncc(-c4cc(F)cc(Cl)c4)c3N3CCC(N)CC3)[nH]c12` [Compound 1-87, 2-({2-[2-amino-4-(4-aminopiperidin-1-yl)-5-(3-chloro-5-fluorophenyl)pyridin-3-yl]-5-fluoro-1H-1,3-benzodiazol-7-yl}oxy)acetonitrile], the EC50 was less than 10 nM.

With `Cc1cc(F)cc(-c2cnc(N)c(C=NOC(C)C)c2N2CCC(N)CC2)c1` [Compound 1-34], the concentration for a half-maximal effect (EC50) was less than 10 nM.
